Experimental data from US20250115640A1, “NEUROPROTECTIVE POLYPEPTIDE COMPOUND AND APPLICATION THEREOF” (Innerse (Zhuhai) Pharmaceutical Co., Ltd., priority 2021, published 2025).
Values joined by “and” are separate entries in the source; they are usually repeats but may differ in a detail not shown here. Equal values may be shown once. “Also recorded” adds a separate entry of the source. Square brackets hold non-standard residues; d marks the D form. Ends that are not written are not given here. Peptide text beside a SMILES is read from it. βAla = NCCC(=O)O

Key:
[1] = test system: acute ischemic stroke due to large vessel occlusion; conditions: cited from earlier work
[2] = test system: rat model of cerebral ischemia via middle cerebral artery occlusion (MCAO); assay: Rat MCAO cerebral ischemia model, behavioral observation and scoring 0-5 (Example 5); format: in vivo, SD rats; conditions: 3 mg/kg tail vein, scoring 22-24 h after ligation, scale 0-5; for Behavioral score, mean value: group mean, 6 rats
Protocol: In order to determine use of the synthetic peptides provided herein in a neurological disease, SD rats were used to prepare a rat model of cerebral ischemia via middle cerebral artery occlusion (MCAO). These rats were injected intravenously 1-2 hours after ischemia, and subjected for a behavioral observation and scoring after 22-24 hours. After the behavioral observation, the rats were euthanized and their brains were removed, cut to sections and stained with TTC for quantitative analysis, and the cerebral infarct volume % was calculated. The experimental SD rats were weighed and anesthetized with chloral hydrate. After anesthesia, the limbs of the rats were fixed, and the rats were placed in a supine position, connected to the small-animal monitor, and monitored for important physiological parameters such as body temperature, blood pressure and heart rate, etc. The rats were shaved at neck and disinfected with 75% alcohol cotton ball. A middle incision of about 2 cm length was then made on the neck of the rats, and the submandibular gland of the rats was bluntly separated while avoiding damage to the gland. Then, the left common carotid artery (CCA) of the rats was bluntly separated, and the internal carotid artery (ICA) and external carotid artery (ECA) were carefully separated upward along the CCA. Any damage to vagus nerves was avoided during the separation. The CCA and ICA were clamped respectively with two artery clamps, and the distal end of the ECA was cut off. A silicone suture emboli was inserted into the ECA “port” to the ICA artery clamp. Then the artery clamp was quickly loosened and the tip of the suture emboli was pushed forward through the artery clamp quickly before clamping the ICA again. […] The experimental rats were monitored with the small-animal monitor to evaluate if their physiological parameters were normal, and the rats were placed on a small-animal electric blanket to keep their body temperature until they waked up and placed in animal cages. […]

[3] = test system: rat model of cerebral ischemia via middle cerebral artery occlusion (MCAO); assay: Rat MCAO cerebral ischemia model, TTC staining, cerebral infarct volume (Example 5); format: in vivo, SD rats; conditions: 3 mg/kg tail vein 1-2 h after ligation, TTC after 22-24 h
Protocol: In order to determine use of the synthetic peptides provided herein in a neurological disease, SD rats were used to prepare a rat model of cerebral ischemia via middle cerebral artery occlusion (MCAO). These rats were injected intravenously 1-2 hours after ischemia, and subjected for a behavioral observation and scoring after 22-24 hours. After the behavioral observation, the rats were euthanized and their brains were removed, cut to sections and stained with TTC for quantitative analysis, and the cerebral infarct volume % was calculated. The experimental SD rats were weighed and anesthetized with chloral hydrate. After anesthesia, the limbs of the rats were fixed, and the rats were placed in a supine position, connected to the small-animal monitor, and monitored for important physiological parameters such as body temperature, blood pressure and heart rate, etc. The rats were shaved at neck and disinfected with 75% alcohol cotton ball. […] The experimental rats were monitored with the small-animal monitor to evaluate if their physiological parameters were normal, and the rats were placed on a small-animal electric blanket to keep their body temperature until they waked up and placed in animal cages. […] The quantitative analysis of photos after TTC staining was performed using Image J software. […]

[4] = General status observation and autopsy findings of MCAO model animals (Example 6); format: in vivo, Sprague-Dawley (SD) rats; conditions: 24 hours after administration; single animals
Protocol: After the adaptation period, animals weighing 240-290 g were selected for dividing into groups for modeling. 24 hours after administration, the animal numbered 2M006 in the S3 group was found dead. […] The data of the above animals was not included in the final statistical analysis. The data of the remaining animals in each group was included in the final statistical analysis. The number of animals included in the final statistical analysis was 8 animals for the model control group, 7 animals for S3 group, 9 animals for the t-PA group and 7 animals for S3+t-PA group.
• Animals observed: all the surviving animals planned to be observed; • Observation time: once a day, and the frequency can be increased if the animal starts to behave abnormal; • What were observed: including but not limited to general manifestations, behavioral status, eye, mouth, nose and mouth area, ear, hair and skin, feces, urine, genital organ and other toxic symptoms. A detailed description was required if there was any abnormality.

[5] = Body weight of MCAO model animals (Example 6); format: in vivo, Sprague-Dawley (SD) rats; conditions: individual animal
Protocol: • Animals measured: all the surviving experimental animals planned to be measured; • Measurement time: the body weight was measured at least twice during the adaptation period, once 24 hours before surgery for grouping, and once 24 hours after surgery.
Cerebral ischemia-reperfusion is an acute injury model, wherein the weight of experimental animals will drop dramatically after MCAO modeling. Thus, the weight of experimental animals is one of the most basic sensitive parameters to comprehensively reflect the health status of animals. In this experiment, the body weight of all the animals was monitored on the day before the surgery and on the first day after the surgery, and the changes of animal's body weight were observed and recorded.

YGRKKRRQRRRKLSSIESDV [Example S1]
Serious adverse events ([1]; human, in vivo): occurred equally between groups
Proportion of patients with an mRS score of 0-2 within 90 days ([1]; single dose of 2.6 mg/kg, maximum 270 mg, 549 patients, placebo 59.2%): 61.4%
Behavioral score, mean value [2]: 2.0
Behavioral score, mean value ([2]; listed as NA1): 2.0±0.6
Behavioral score, individual rats No. 1-6 ([2]; individual rat): 2 (4×) and 1 and 3
Cerebral infarct volume (TTC quantification), mean value ([3]; group mean, 6 rats): 0.157
Cerebral infarct volume (TTC quantification), individual rats No. 1-6 ([3]; individual rat, listed as S1(NA1)): 0.187 and 0.218 and 0.153 and 0.145 and 0.107 and 0.134

CC[C@H](C)[C@H](NC(=O)[C@H](CO)NC(=O)[C@H](CO)NC(=O)[C@H](CC(C)C)NC(=O)[C@H](CCCCN)NC(=O)[C@H](Cc1c[nH]cn1)NC(=O)CCN)C(=O)N[C@@H](CCC(=O)O)C(=O)N[C@@H](CO)C(=O)N[C@@H](CC(=O)O)C(=O)N[C@H](C(=O)O)C(C)C [Example S3, beta-Ala-His-Lys-Leu-Ser-Ser-Ile-Glu-Ser-Asp-Val] (H-[βAla]HKLSSIESDV-OH)
Death and autopsy findings in animals excluded from statistical analysis [4]: found dead; also recorded: subarachnoid hemorrhage
Body weight D 2, individual animals ([5]; after surgery and administration): 232.57 g and 249.67 g and 201.22 g and 228.45 g and 202.45 g and 195.33 g and 217.36 g
Body weight D 0, individual animals ([5]; before surgery (baseline)): 281.72 g and 266.48 g and 253.24 g and 286.91 g and 258.64 g and 247.34 g and 273.73 g
